Reference: ChEMBL document CHEMBL3102853, “Carbonic anhydrase inhibitors. Synthesis, and molecular structure of novel series N-substituted N'-(2-arylmethylthio-4-chloro-5-methylbenzenesulfonyl)guanidines and their inhibition of human cytosolic isozymes I and II and the transmembrane tumor-associated isozymes IX and XII” (Eur J Med Chem, 2014)
Each block holds one molecule with its values, some of them ahead of it. Calls of active or inactive are those of the source. The rule behind the calls is not given here.

Tests used:
Carbonic anhydrase 9 = Carbonic anhydrase 9 (Homo sapiens, UniProt Q16790)
[1] = Cytotoxicity against human Hs 578T cells at 10 uM; type: functional; details: read-out: GI
MCF7 = experiment: Cytotoxicity against human MCF7 cells at 10 uM; type: functional
T47D = experiment: Cytotoxicity against human T47D cells at 10 uM; type: functional; details: read-out: GI
DU-145 = experiment: Cytotoxicity against human DU145 cells at 10 uM; type: functional
PC-3 = experiment: Cytotoxicity against human PC3 cells at 10 uM; type: functional
A498 = experiment: Cytotoxicity against human A498 cells at 10 uM; type: functional
NCI/ADR-RES = experiment: (§1) Cytotoxicity against human NCI-ADR-RES cells at 10 uM; type: functional
LOX IMVI = experiment: Cytotoxicity against human LOXIMVI cells at 10 uM; type: functional; details: read-out: GI
OVCAR-3 = experiment: Cytotoxicity against human OVCAR3 cells at 10 uM; type: functional
UACC-62 = experiment: Cytotoxicity against human UACC62 cells at 10 uM; type: functional; details: read-out: GI
SK-MEL-2 = experiment: Cytotoxicity against human SK-MEL-2 cells at 10 uM; type: functional
SF-268 = experiment: Cytotoxicity against human SF268 cells at 10 uM; type: functional; details: read-out: GI
SW-620 = experiment: Cytotoxicity against human SW620 cells at 10 uM; type: functional
SNB-75 = experiment: Cytotoxicity against human SNB75 cells at 10 uM; type: functional; details: read-out: GI
KM12 = experiment: Cytotoxicity against human KM12 cells at 10 uM; type: functional
HT-29 = experiment: Cytotoxicity against human HT-29 cells at 10 uM; type: functional
HOP-92 = experiment: Cytotoxicity against human HOP92 cells at 10 uM; type: functional; details: read-out: GI
NCI-H460 = experiment: Cytotoxicity against human NCI-H460 cells at 10 uM; type: functional
A549 = experiment: Cytotoxicity against human A549 cells at 10 uM; type: functional
MDA-MB-468 = experiment: Cytotoxicity against human MDA-MB-468 cells at 10 uM; type: functional; details: read-out: GI
[2] = as §1; type: functional; details: read-out: GI
SR = experiment: Cytotoxicity against human SR cells at 10 uM; type: functional; details: read-out: GI
MOLT-4 = experiment: Cytotoxicity against human MOLT4 cells at 10 uM; type: functional; details: read-out: GI
RPMI-8226 = experiment: Cytotoxicity against human RPMI8226 cells at 10 uM; type: functional; details: read-out: GI

Ki (Carbonic anhydrase 9): 138 nM
SMILES: Cc1cc(S(=O)(=O)NC(=N)Nc2ccccc2S(N)(=O)=O)c(SCc2cccc3ccccc23)cc1Cl

Ki (Carbonic anhydrase 9): 9.4 nM
SMILES: Cc1cc(S(=O)(=O)NC(=N)Nc2nnc(S(N)(=O)=O)s2)c(SCc2cccc3ccccc23)cc1Cl
inhibition of growth at 10 µM [1]: 15% | growth inhibition (GI) (MCF7): inactive | inhibition of growth at 10 µM (T47D): 17% | growth inhibition (GI) (DU-145): inactive | growth inhibition (GI) (PC-3): inactive | inhibition of growth at 10 µM (A498; read-out: GI): 48% | growth inhibition (GI) (NCI/ADR-RES): inactive | inhibition of growth at 10 µM (LOX IMVI): 2% | growth inhibition (GI) (OVCAR-3): inactive | inhibition of growth at 10 µM (UACC-62): 2% | growth inhibition (GI) (SK-MEL-2): inactive | inhibition of growth at 10 µM (SF-268): 4% | inhibition of growth at 10 µM (SW-620; read-out: GI): 8% | inhibition of growth at 10 µM (SNB-75): 11% | growth inhibition (GI) (KM12): inactive | growth inhibition (GI) (HT-29): inactive | inhibition of growth at 10 µM (HOP-92): 3% | inhibition of growth at 10 µM (NCI-H460; read-out: GI): 3% | growth inhibition (GI) (A549): inactive

SMILES: Cc1cc(S(=O)(=O)NC(=N)Nc2ccc(S(N)(=O)=O)cc2)c(SCc2cc3c(cc2Cl)OCO3)cc1Cl
inhibition of growth at 10 µM [1]: 2% | inhibition of growth at 10 µM (MDA-MB-468): 41% | inhibition of growth at 10 µM (MCF7; read-out: GI): 4% | inhibition of growth at 10 µM (T47D): 23% | growth inhibition (GI) (DU-145): inactive | inhibition of growth at 10 µM (PC-3; read-out: GI): 25% | growth inhibition (GI) (A498): inactive | inhibition of growth at 10 µM [2]: 1% | inhibition of growth at 10 µM (LOX IMVI): 8% | inhibition of growth at 10 µM (OVCAR-3; read-out: GI): 12% | inhibition of growth at 10 µM (UACC-62): 17% | inhibition of growth at 10 µM (SK-MEL-2; read-out: GI): 9% | inhibition of growth at 10 µM (SF-268): 5% | growth inhibition (GI) (SW-620): inactive | inhibition of growth at 10 µM (SNB-75): 22% | inhibition of growth at 10 µM (KM12; read-out: GI): 8% | growth inhibition (GI) (HT-29): inactive | inhibition of growth at 10 µM (HOP-92): 29% | growth inhibition (GI) (NCI-H460): inactive | inhibition of growth at 10 µM (A549; read-out: GI): 4% | inhibition of growth at 10 µM (SR): 25% | inhibition of growth at 10 µM (MOLT-4): 20% | inhibition of growth at 10 µM (RPMI-8226): 10%

Ki (Carbonic anhydrase 9): 17 nM
SMILES: Cc1cc(S(=O)(=O)NC(=N)NCc2ccc(S(N)(=O)=O)cc2)c(SCc2cccc(C(F)(F)F)c2)cc1Cl
